Experimental data taken from patent US20240132485A1, “HETEROCYCLIC CULLIN RING UBIQUITIN LIGASE COMPOUNDS AND USES THEREOF” (CEMM - FORSCHUNGSZENTRUM FÜR MOLEKULARE MEDIZIN GMBH, priority 2020, published 2024).

Key:
KBM7 cells (wild-type) = assay: KBM7 CTG EC50 assay (UBE2M wild-type); assay type: cell-based, human; conditions: for EC50: Homo sapiens, KBM-7, 72 h incubation, CellTiter-Glo, read-out: KBM7 CTG EC50 (UBE2M wild-type) Activity Class; for Ratio UBE2M WT to KO: ratio of anti-proliferative activity in KBM7 wild-type versus UBE2M knock-out cells (fold)
From the text: (§1) This is a cell viability assay to measure the desired therapeutic effect, i.e. killing of cancer cells. The UBE2M mutant cell line has impaired activity of the Cullin-RING ligase system due to a hypomorphic mutation in UBE2M, which is required for activation of these E3 ligases. By comparison with WT cells, it is possible to estimate the contribution of Cyclin K degradation (which is reduced in UBE2M mut cells) compared to kinase inhibition of CDK12 (which is unaffected in UBE2M mut cells). Since the UBE2M mutation only reduces CRL function without fully abrogating it, this assay may slightly underestimate the effect of degradation because, at high compound concentrations, degradation may still be observed.
(§2) KBM7 cells (wild-type or harboring α hypomorphic UBE2M mutation (Mayor-Ruiz et al., 2019)) were seeded in a white opaque 384-well plate at a density of 1000 cells per well in duplicate, in full medium (IMDM+10% FBS+1% penicillin-streptomycin). Cells were treated with compounds in a 10-point titration with a dilution factor of 1:4 (range: 0 to 20 μM). After 72 h of incubation, the cell viability was determined using the CellTiter-Glo® 2.0 reactant (Promega), pre-diluted 1:4 in mQ water. The luminescence signal was measured using the multimode plate reader EnVision 2105 (Perkin Elmer).

CCNK = assay: NanoLuc-CCNK degradation assay (HEK293T_Nluc_CCNK-tagged cells); assay type: cell-based; conditions: 4 h incubation, HEK293T_Nluc_CCNK-tagged cells; for DC50: read-out: NanoLuc-CCNK degradation DC50 Activity Class
Procedure: The assay helps to elucidate the mechanistic explanation of the cell killing effect of the compounds of the present invention. Cyclin K is fused to a nanoluciferase, light emission is measured as a proxy of Cyclin K abundance. Potency of Cyclin K degradation and cytotoxicity of KBM7 correlate extremely well, further supporting Cyclin K degradation being the main driver of the cell killing, as opposed to inhibition of CDK12 catalytic activity.
HEK293T_Nluc_CCNK-tagged cells were engineered by integrating a nanoluciferase tag at the N-terminus of the endogenous locus of CCNK using CRISPR-Cas9 technology. Briefly, 5.5 million HEK293T cells were co-transfected by PEI with a 1:1 ratio of cutting vector (sgRNA: […]) and repair template (4 μg total plasmid) as previously described (Brand and Winter, 2019). The repair sequence comprises a cassette of puromycinR-P2A-HA-Nluc-(G4S)3 (P2A: self-cleaving peptide 2A, HA: HA-tag, (G4S)3: flexible linker), surrounded by 20-nucleotide microhomologies matching the genomic locus. After 3 days of incubation, the recombinant population was selected by puromycin treatment (2 μg/ml, 5-day treatment). A monoclonal population was obtained by limiting dilution and cassette integration validated by Sanger sequencing.
HEK293T_Nluc_CCNK-tagged cells were seeded in a white opaque 384-well plate at a density of 8000 cells per well in duplicate, in full medium (Opti-MEM I+4% FBS+1% PS). Cells were treated with compounds in a 10-point titration (range: 0 to 10 μM, 1:4 dilution). After 4 h of incubation, Nano-Glo substrate (Promega), pre-diluted in serum-free medium (Opti-MEM I), was added to the cells (1:500 final dilution). The luminescence signal was directly measured using the multimode plate reader EnVision 2105 (Perkin Elmer).

[1] = target: T1, DDB1-CDK12/Cyclin K ternary complex (Homo sapiens, UniProt Q16531+Q9NYV4); assay: NanoBRET fold-change assay (HaloTag_CDK12 / NanoLuc_DDB1 in HEK293T); assay type: cell-based; conditions: 10 μM compound, 10 minutes
T1 construct: expressed in transfected cells; host or cells: HEK293T wildtype cells, transient PEI transfection
Procedure: This assay measures the interaction/recruitment of CDK12/Cyclin K to DDB1, mechanistically validating the molecular glue pharmacology.
HEK293T wildtype cells are seeded 800 k cells/well (DMEM+10% FBS+1% PS) in a 6-well plate and allowed to attach for ˜7 hours followed by a transient transfection of 1.5 μg HaloTag_CDK12 Plasmid [Table 1] and 0.15 μg NanoLuc_DDB1 plasmid [Table 1] per well using PEI. Cells are incubated at 37° C., 5% CO2, harvested after 24 hours and resuspended in assay media (Opti-MEM Reduced serum media, no phenol red, 4% FBS, 1% PS). Cells are adjusted to 2.3×10^5 cells/ml and treated with HaloTag 618 Ligand at 100 nM or DMSO. 8000 cells are seeded per well in triplicates per compound in a white-walled 384-well plate, one negative control treated with DMSO instead of HaloTag 618 Ligand is seeded in triplicates and the 384-well plate is incubated at 37° C., 5% CO2 overnight. Compound stock solutions are prepared in Opti-MEM−/− (Opti-MEM I Reduced serum media, no phenol red) at 8× and used to treat the cells at a final concentration of 1× at 10 μM. Cells and compounds are incubated for 10 minutes at room temperature followed by addition of NanoBRET Nano-Glo substrate following manufacturer's protocols. The plate is shaken for 30 sec followed by immediate measurement of donor emission (NanoBRET Blue at 460 nm) and acceptor emission (BRET Deep Red at 647 nm) for 0.5 s.

[2] = test system: KBM7 cells harboring a hypomorphic UBE2M mutation; assay: KBM7 CTG EC50 assay (UBE2M knock-out); assay type: cell-based; conditions: Homo sapiens, KBM-7; 72 h incubation, CellTiter-Glo; read-out: KBM7 CTG EC50 (UBE2M knock-out) Activity Class
From the text: as §1, §2

T1 sequence (Q9NYV4 whole entry): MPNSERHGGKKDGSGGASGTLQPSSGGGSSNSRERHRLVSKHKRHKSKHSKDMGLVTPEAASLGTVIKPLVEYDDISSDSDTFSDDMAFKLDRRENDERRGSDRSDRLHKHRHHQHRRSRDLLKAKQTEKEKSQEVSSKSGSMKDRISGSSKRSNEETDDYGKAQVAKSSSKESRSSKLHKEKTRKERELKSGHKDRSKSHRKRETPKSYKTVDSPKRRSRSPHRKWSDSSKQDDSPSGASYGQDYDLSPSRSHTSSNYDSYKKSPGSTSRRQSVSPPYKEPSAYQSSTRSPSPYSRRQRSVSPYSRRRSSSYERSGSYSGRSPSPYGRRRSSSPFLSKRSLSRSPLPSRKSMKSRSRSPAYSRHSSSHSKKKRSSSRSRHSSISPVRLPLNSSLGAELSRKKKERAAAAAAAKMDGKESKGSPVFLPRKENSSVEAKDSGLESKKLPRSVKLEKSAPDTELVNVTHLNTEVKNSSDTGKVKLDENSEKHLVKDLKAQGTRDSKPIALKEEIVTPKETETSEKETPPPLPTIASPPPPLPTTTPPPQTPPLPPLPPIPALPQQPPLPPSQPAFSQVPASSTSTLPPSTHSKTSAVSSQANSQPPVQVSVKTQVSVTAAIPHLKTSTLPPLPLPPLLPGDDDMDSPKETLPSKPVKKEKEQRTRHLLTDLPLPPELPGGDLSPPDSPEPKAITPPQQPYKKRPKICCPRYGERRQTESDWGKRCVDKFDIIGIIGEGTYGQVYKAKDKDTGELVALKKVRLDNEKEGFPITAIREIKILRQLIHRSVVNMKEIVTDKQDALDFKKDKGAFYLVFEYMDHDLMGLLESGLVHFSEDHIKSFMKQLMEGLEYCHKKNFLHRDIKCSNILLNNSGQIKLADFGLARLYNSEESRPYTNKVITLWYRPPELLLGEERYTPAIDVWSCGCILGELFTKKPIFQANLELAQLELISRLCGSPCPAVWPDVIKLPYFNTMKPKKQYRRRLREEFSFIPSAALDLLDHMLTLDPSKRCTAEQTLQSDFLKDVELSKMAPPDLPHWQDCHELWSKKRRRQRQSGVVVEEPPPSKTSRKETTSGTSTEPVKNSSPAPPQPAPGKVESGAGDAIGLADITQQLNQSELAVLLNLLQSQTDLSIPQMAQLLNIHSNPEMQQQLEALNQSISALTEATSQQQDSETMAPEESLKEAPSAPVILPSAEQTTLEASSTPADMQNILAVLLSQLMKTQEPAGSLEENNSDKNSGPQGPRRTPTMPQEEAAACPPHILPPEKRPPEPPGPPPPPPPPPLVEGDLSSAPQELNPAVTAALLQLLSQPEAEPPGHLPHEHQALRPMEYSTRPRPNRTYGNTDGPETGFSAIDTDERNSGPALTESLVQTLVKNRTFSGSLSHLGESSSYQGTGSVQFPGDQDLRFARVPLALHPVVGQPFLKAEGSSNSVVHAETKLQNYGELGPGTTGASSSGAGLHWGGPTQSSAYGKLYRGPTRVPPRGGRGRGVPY
T1 sequence (Q16531 whole entry): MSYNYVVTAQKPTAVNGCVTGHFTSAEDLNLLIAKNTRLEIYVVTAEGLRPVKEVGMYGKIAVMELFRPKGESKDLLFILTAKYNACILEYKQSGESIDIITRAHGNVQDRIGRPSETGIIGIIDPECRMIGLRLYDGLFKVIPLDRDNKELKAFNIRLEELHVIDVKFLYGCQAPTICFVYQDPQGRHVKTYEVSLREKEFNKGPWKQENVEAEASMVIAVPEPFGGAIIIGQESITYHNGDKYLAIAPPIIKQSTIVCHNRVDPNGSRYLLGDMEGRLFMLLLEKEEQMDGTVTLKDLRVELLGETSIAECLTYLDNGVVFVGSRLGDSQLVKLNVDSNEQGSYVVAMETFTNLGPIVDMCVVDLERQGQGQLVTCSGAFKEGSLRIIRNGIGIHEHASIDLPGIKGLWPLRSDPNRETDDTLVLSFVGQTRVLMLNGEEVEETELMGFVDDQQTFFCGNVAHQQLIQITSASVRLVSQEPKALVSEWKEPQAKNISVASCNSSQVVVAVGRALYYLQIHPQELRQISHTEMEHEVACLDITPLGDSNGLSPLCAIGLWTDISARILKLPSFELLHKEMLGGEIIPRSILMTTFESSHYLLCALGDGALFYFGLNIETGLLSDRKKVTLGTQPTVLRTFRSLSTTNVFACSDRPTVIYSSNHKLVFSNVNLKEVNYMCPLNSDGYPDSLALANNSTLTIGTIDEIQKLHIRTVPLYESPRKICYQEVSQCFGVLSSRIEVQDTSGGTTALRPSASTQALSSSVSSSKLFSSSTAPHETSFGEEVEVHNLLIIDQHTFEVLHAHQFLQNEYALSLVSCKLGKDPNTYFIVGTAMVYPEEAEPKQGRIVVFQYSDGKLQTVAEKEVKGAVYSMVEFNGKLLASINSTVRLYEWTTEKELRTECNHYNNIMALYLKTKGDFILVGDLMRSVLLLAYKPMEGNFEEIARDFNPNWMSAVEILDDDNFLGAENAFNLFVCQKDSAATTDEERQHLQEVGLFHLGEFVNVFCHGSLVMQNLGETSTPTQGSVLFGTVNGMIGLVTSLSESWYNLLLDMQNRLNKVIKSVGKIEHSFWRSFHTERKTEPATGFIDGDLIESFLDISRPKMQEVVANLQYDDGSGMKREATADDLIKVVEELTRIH
T1 sequence (O75909 whole entry partner): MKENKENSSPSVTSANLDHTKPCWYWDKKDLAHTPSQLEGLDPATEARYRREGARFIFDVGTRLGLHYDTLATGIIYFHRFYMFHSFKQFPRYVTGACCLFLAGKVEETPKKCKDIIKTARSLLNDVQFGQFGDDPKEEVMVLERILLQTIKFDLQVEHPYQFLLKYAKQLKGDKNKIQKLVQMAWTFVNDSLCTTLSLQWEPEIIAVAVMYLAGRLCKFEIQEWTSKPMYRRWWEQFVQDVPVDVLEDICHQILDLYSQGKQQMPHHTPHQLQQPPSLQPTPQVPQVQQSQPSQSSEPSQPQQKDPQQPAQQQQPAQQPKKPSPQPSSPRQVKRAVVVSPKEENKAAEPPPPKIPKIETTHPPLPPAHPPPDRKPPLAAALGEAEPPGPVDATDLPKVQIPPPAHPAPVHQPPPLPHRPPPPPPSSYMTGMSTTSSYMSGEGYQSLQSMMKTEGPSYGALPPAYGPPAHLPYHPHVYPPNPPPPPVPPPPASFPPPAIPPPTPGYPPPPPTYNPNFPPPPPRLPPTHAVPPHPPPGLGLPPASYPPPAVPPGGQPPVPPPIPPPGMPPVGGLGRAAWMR

SMILES | DC50 (CCNK) [µM] | NanoBRET fold-change Activity Class [1] | NanoLuc-CCNK degradation DC50 Activity Class (CCNK) | EC50 (KBM7 cells (wild-type)) [nM] | Ratio UBE2M WT to KO (KBM7 cells (wild-type)) | EC50 [2] [µM]
CC(C(=O)Nc1ncc(C(F)(F)F)s1)c1cc2ccccc2s1 (centres unmarked) [Example 3-11, 2-(benzo[b]thiophen-2-yl)-N-(5-(trifluoromethyl)thiazol-2-yl)propanamide] | ≤ 0.1 | A (greater than 4-fold increase) | – | ≤ 250 | 9.4 | ≤ 0.25
O=C(Cc1cccc2cnccc12)Nc1ncc(C(F)(F)F)s1 [Example 3-30, 2-(isoquinolin-5-yl)-N-(5-(trifluoromethyl)thiazol-2-yl)acetamide] | > 10 | C (2-3 fold increase) | – | > 10000 | >1 | > 10
O=C(Nc1ncc(C(F)(F)F)s1)C1CC(=O)N(c2ccc3c(c2)OCO3)C1 (centres unmarked) [Example 3-25, 1-(benzo[d][1,3]dioxol-5-yl)-5-oxo-N-(5-(trifluoromethyl)thiazol-2-yl)pyrrolidine-3-carboxamide] | > 10 | B (3-4 fold increase) | – | 250 to 500 | >10 | > 10
O=C(Cc1cccc2ccncc12)Nc1ncc(C(F)(F)F)s1 [Example 3-33, 2-(isoquinolin-8-yl)-N-(5-(trifluoromethyl)thiazol-2-yl)acetamide] | > 10 | A (greater than 4-fold increase) | – | ≤ 250 | 64.7 | 1 to 10
O=C(Nc1ncc(C(F)(F)F)s1)C1CC(=O)N(c2ccc3c(c2)CCC3)C1 (centres unmarked) [Example 3-24, 1-(2,3-dihydro-1H-inden-5-yl)-5-oxo-N-(5-(trifluoromethyl)thiazol-2-yl)pyrrolidine-3-carboxamide] | – | B (3-4 fold increase) | B (0.50 μM≤DC50<0.10 μM) | ≤ 250 | 23.8 | 1 to 10
Cc1ccc(CN2CC(C(=O)Nc3ncc(C(F)(F)F)s3)CC2=O)cc1 (centres unmarked) [Example 3-29, 1-(4-methylbenzyl)-5-oxo-N-(5-(trifluoromethyl)thiazol-2-yl)pyrrolidine-3-carboxamide] | > 10 | B (3-4 fold increase) | – | 500 to 1000 | >16 | > 10
O=C(Nc1ncc(C(F)(F)F)s1)C1CC(=O)N(c2ccccc2Cl)C1 (centres unmarked) [Example 3-20, 1-(2-chlorophenyl)-5-oxo-N-(5-(trifluoromethyl)thiazol-2-yl)pyrrolidine-3-carboxamide] | > 10 | C (2-3 fold increase) | – | 250 to 500 | >10 | > 10
O=C(Nc1ncc(C(F)(F)F)s1)C1CC(=O)N(Cc2ccccc2)C1 (centres unmarked) [Example 3-27, 1-benzyl-5-oxo-N-(5-(trifluoromethyl)thiazol-2-yl)pyrrolidine-3-carboxamide] | ≤ 0.1 | B (3-4 fold increase) | – | ≤ 250 | >10 | > 10
O=C(Cc1cn2cc(Cl)cc(Cl)c2n1)Nc1ncc(C(F)(F)F)s1 [Example 3-8, 2-(6,8-dichloroimidazo[1,2-a]pyridin-2-yl)-N-(5-(trifluoromethyl)thiazol-2-yl)acetamide] | ≤ 0.1 | A (greater than 4-fold increase) | – | ≤ 250 | 51.5 | ≤ 0.25
Cc1cccn2cc(CC(=O)Nc3ncc(C(F)(F)F)s3)nc12 [Example 3-7, 2-(8-methylimidazo[1,2-a]pyridin-2-yl)-N-(5-(trifluoromethyl)thiazol-2-yl)acetamide] | > 10 | B (3-4 fold increase) | – | ≤ 250 | 42.4 | 1 to 10
Cc1ccc(N2CC(C(=O)Nc3ncc(C(F)(F)F)s3)CC2=O)cc1 (centres unmarked) [Example 3-16, 5-oxo-1-(p-tolyl)-N-(5-(trifluoromethyl)thiazol-2-yl)pyrrolidine-3-carboxamide] | – | C (2-3 fold increase) | C (1.0 μM≤DC50<0.50 μM) | 250 to 500 | >10 | > 10

Now from value to compound, other results behind:

DC50 (CCNK) [µM] | NanoBRET fold-change Activity Class [1] | NanoLuc-CCNK degradation DC50 Activity Class (CCNK) | SMILES | EC50 (KBM7 cells (wild-type)) [nM] | Ratio UBE2M WT to KO (KBM7 cells (wild-type)) | EC50 [2] [µM]
> 10 | C (2-3 fold increase) | – | Cc1ccc2c(CC(=O)Nc3ccc(C(F)(F)F)cn3)coc2c1C [Example 3-54, 2-(6,7-dimethylbenzofuran-3-yl)-N-(5-(trifluoromethyl)pyridin-2-yl)acetamide] | ≤ 250 | 24.7 | 1 to 10
> 10 | C (2-3 fold increase) | – | O=C(Cc1cn2cc(F)ccc2n1)Nc1cc(Cl)[nH]n1 [Example 3-60, N-(5-chloro-1H-pyrazol-3-yl)-2-(6-fluoroimidazo[1,2-a]pyridin-2-yl)acetamide] | 1000 to 10000 | >9 | > 10
– | B (3-4 fold increase) | B (0.50 μM≤DC50<0.10 μM) | CC(C)c1cc(NC(=O)Cc2cn3cc(F)ccc3n2)n[nH]1 [Example 3-57, 2-(6-fluoroimidazo[1,2-a]pyridin-2-yl)-N-(5-isopropyl-1H-pyrazol-3-yl)acetamide] | ≤ 250 | 146.3 | 1 to 10
– | B (3-4 fold increase) | D (10 μM≤DC50<1.0 μM) | O=C(Cc1c[nH]c2nccc(Cl)c12)Nc1ncc(C(F)(F)F)s1 [Example 3-39, 2-(4-chloro-1H-pyrrolo[2,3-b]pyridin-3-yl)-N-(5-(trifluoromethyl)thiazol-2-yl)acetamide] | 1000 to 10000 | >4 | > 10
– | B (3-4 fold increase) | B (0.50 μM≤DC50<0.10 μM) | Cc1ccc2c(CC(=O)Nc3cc(Cl)[nH]n3)coc2c1C [Example 3-49, N-(5-chloro-1H-pyrazol-3-yl)-2-(6,7-dimethylbenzofuran-3-yl)acetamide] | ≤ 250 | 37.3 | 1 to 10
